Values joined by “and” are separate entries in the source; they are usually repeats but may differ in a detail not shown here. Equal values may be shown once. Numbers after ± are expanded uncertainties.
Assays:
[1] = for surface tension liquid-gas: Wilhelmy-plate method; for viscosity / mass density: Liquid; for viscosity: Falling or rolling sphere viscometry; for mass density: Vibrating tube method
[2] = refractive index (Na D-line) (dimensionless); conditions: Liquid, Standard Abbe refractometry
[3] = xn = mol fraction of the nth substance listed; conditions: for surface tension liquid-gas: Wilhelmy-plate method; for viscosity / mass density: 101 kPa, Liquid; for viscosity: Falling or rolling sphere viscometry; for mass density: Vibrating tube method
[4] = refractive index (Na D-line) (dimensionless); xn = mol fraction of the nth substance listed; conditions: 101 kPa, Liquid, Standard Abbe refractometry

CC(C)CC(C)(C)C [2,2,4-trimethylpentane]
surface tension liquid-gas ([1]; 293.15 K): 18.8 ± 0.4 mN/m
viscosity ([1]; 293.15 K, 101 kPa): 0.503 ± 0.009 mPa·s
mass density ([1]; 293.15 K, 101 kPa): 691.98 ± 0.18 kg/m3
surface tension liquid-gas ([1]; 298.15 K): 18.3 ± 0.4 mN/m
viscosity ([1]; 298.15 K, 101.33 kPa): 0.475 ± 0.009 mPa·s
mass density ([1]; 298.15 K, 101.33 kPa): 687.7 ± 0.2 kg/m3
surface tension liquid-gas ([1]; 303.15 K): 17.9 ± 0.4 mN/m
viscosity ([1]; 303.15 K, 101 kPa): 0.447 ± 0.009 mPa·s
mass density ([1]; 303.15 K, 101 kPa): 683.61 ± 0.18 kg/m3
surface tension liquid-gas ([1]; 313.15 K): 16.9 ± 0.4 mN/m
viscosity ([1]; 313.15 K, 101 kPa): 0.404 ± 0.009 mPa·s
mass density ([1]; 313.15 K, 101 kPa): 675.23 ± 0.18 kg/m3
surface tension liquid-gas ([1]; 323.15 K): 16.2 ± 0.4 mN/m
viscosity ([1]; 323.15 K, 101 kPa): 0.365 ± 0.009 mPa·s
mass density ([1]; 323.15 K, 101 kPa): 666.8 ± 0.19 kg/m3
refractive index ([2]; 293.15 K, 101 kPa): 1.39161 ± 0.00033
refractive index ([2]; 298.15 K, 101.33 kPa): 1.38906 ± 0.00033
refractive index ([2]; 303.15 K, 101 kPa): 1.3866 ± 0.00033
refractive index ([2]; 313.15 K, 101 kPa): 1.38143 ± 0.00033
refractive index ([2]; 323.15 K, 101 kPa): 1.37627 ± 0.00033

CC(C)CC(C)(C)C [2,2,4-trimethylpentane] + C1CCOCC1
surface tension liquid-gas ([3]; 293.15 K, x2 = 0): 18.8 ± 0.4 mN/m
viscosity ([3]; 293.15 K, x2 = 0): 0.503 ± 0.009 mPa·s
mass density ([3]; 293.15 K, x2 = 0): 691.98 ± 0.18 kg/m3
surface tension liquid-gas ([3]; 303.15 K, x2 = 0): 17.9 ± 0.4 mN/m
viscosity ([3]; 303.15 K, x2 = 0): 0.447 ± 0.009 mPa·s
mass density ([3]; 303.15 K, x2 = 0): 683.61 ± 0.18 kg/m3
surface tension liquid-gas ([3]; 313.15 K, x2 = 0): 16.9 ± 0.4 mN/m
viscosity ([3]; 313.15 K, x2 = 0): 0.404 ± 0.009 mPa·s
mass density ([3]; 313.15 K, x2 = 0): 675.23 ± 0.18 kg/m3
surface tension liquid-gas ([3]; 323.15 K, x2 = 0): 16.2 ± 0.4 mN/m
viscosity ([3]; 323.15 K, x2 = 0): 0.365 ± 0.009 mPa·s
mass density ([3]; 323.15 K, x2 = 0): 666.8 ± 0.19 kg/m3
refractive index ([4]; 293.15 K, x2 = 0): 1.39161 ± 0.00033
refractive index ([4]; 303.15 K, x2 = 0): 1.3866 ± 0.00033
refractive index ([4]; 313.15 K, x2 = 0): 1.38143 ± 0.00033
refractive index ([4]; 323.15 K, x2 = 0): 1.37627 ± 0.00033

CC(C)O [propan-2-ol]
surface tension liquid-gas ([1]; 293.15 K): 21.3 ± 0.4 mN/m
viscosity ([1]; 293.15 K, 101 kPa): 2.362 ± 0.02 mPa·s
mass density ([1]; 293.15 K, 101 kPa): 785.44 ± 0.15 kg/m3
surface tension liquid-gas ([1]; 298.15 K): 20.9 ± 0.4 mN/m
viscosity ([1]; 298.15 K, 101.33 kPa): 2.04 ± 0.02 mPa·s
mass density ([1]; 298.15 K, 101.33 kPa): 781.05 ± 0.15 kg/m3
surface tension liquid-gas ([1]; 303.15 K): 20.4 ± 0.4 mN/m
viscosity ([1]; 303.15 K, 101 kPa): 1.769 ± 0.016 mPa·s
mass density ([1]; 303.15 K, 101 kPa): 776.75 ± 0.15 kg/m3
surface tension liquid-gas ([1]; 313.15 K): 19.6 ± 0.4 mN/m
viscosity ([1]; 313.15 K, 101 kPa): 1.331 ± 0.013 mPa·s
mass density ([1]; 313.15 K, 101 kPa): 767.93 ± 0.15 kg/m3
surface tension liquid-gas ([1]; 323.15 K): 18.8 ± 0.4 mN/m
viscosity ([1]; 323.15 K, 101 kPa): 1.019 ± 0.012 mPa·s
mass density ([1]; 323.15 K, 101 kPa): 758.9 ± 0.16 kg/m3
refractive index ([2]; 293.15 K, 101 kPa): 1.37724 ± 0.00033
refractive index ([2]; 298.15 K, 101.33 kPa): 1.3752 ± 0.00033
refractive index ([2]; 303.15 K, 101 kPa): 1.37286 ± 0.00033
refractive index ([2]; 313.15 K, 101 kPa): 1.36852 ± 0.00033
refractive index ([2]; 323.15 K, 101 kPa): 1.36363 ± 0.00033

CC(C)O [propan-2-ol] + C1CCOCC1
surface tension liquid-gas ([3]; 293.15 K, x1 = 1): 21.3 ± 0.4 mN/m
viscosity ([3]; 293.15 K, x1 = 1): 2.362 ± 0.02 mPa·s
mass density ([3]; 293.15 K, x1 = 1): 785.44 ± 0.15 kg/m3
surface tension liquid-gas ([3]; 303.15 K, x1 = 1): 20.4 ± 0.4 mN/m
viscosity ([3]; 303.15 K, x1 = 1): 1.769 ± 0.016 mPa·s
mass density ([3]; 303.15 K, x1 = 1): 776.75 ± 0.15 kg/m3
surface tension liquid-gas ([3]; 313.15 K, x1 = 1): 19.6 ± 0.4 mN/m
viscosity ([3]; 313.15 K, x1 = 1): 1.331 ± 0.013 mPa·s
mass density ([3]; 313.15 K, x1 = 1): 767.93 ± 0.15 kg/m3
surface tension liquid-gas ([3]; 323.15 K, x1 = 1): 18.8 ± 0.4 mN/m
viscosity ([3]; 323.15 K, x1 = 1): 1.019 ± 0.012 mPa·s
mass density ([3]; 323.15 K, x1 = 1): 758.9 ± 0.16 kg/m3
refractive index ([4]; 293.15 K, x1 = 1): 1.37724 ± 0.00033
refractive index ([4]; 303.15 K, x1 = 1): 1.37286 ± 0.00033
refractive index ([4]; 313.15 K, x1 = 1): 1.36852 ± 0.00033
refractive index ([4]; 323.15 K, x1 = 1): 1.36363 ± 0.00033

CC(C)O [propan-2-ol] + CC(C)CC(C)(C)C
surface tension liquid-gas ([3]; 293.15 K, x1 = 1): 21.3 ± 0.4 mN/m
viscosity ([3]; 293.15 K, x1 = 1): 2.362 ± 0.02 mPa·s
mass density ([3]; 293.15 K, x1 = 1): 785.44 ± 0.15 kg/m3
surface tension liquid-gas ([3]; 303.15 K, x1 = 1): 20.4 ± 0.4 mN/m
viscosity ([3]; 303.15 K, x1 = 1): 1.769 ± 0.016 mPa·s
mass density ([3]; 303.15 K, x1 = 1): 776.75 ± 0.15 kg/m3
surface tension liquid-gas ([3]; 313.15 K, x1 = 1): 19.6 ± 0.4 mN/m
viscosity ([3]; 313.15 K, x1 = 1): 1.331 ± 0.013 mPa·s
mass density ([3]; 313.15 K, x1 = 1): 767.93 ± 0.15 kg/m3
surface tension liquid-gas ([3]; 323.15 K, x1 = 1): 18.8 ± 0.4 mN/m
viscosity ([3]; 323.15 K, x1 = 1): 1.019 ± 0.012 mPa·s
mass density ([3]; 323.15 K, x1 = 1): 758.9 ± 0.16 kg/m3
refractive index ([4]; 293.15 K, x1 = 1): 1.37724 ± 0.00033
refractive index ([4]; 303.15 K, x1 = 1): 1.37286 ± 0.00033
refractive index ([4]; 313.15 K, x1 = 1): 1.36852 ± 0.00033
refractive index ([4]; 323.15 K, x1 = 1): 1.36363 ± 0.00033

C1CCOCC1 [tetrahydropyran]
surface tension liquid-gas ([1]; 293.15 K): 27.5 ± 0.4 mN/m
viscosity ([1]; 293.15 K, 101 kPa): 0.86 ± 0.011 mPa·s
mass density ([1]; 293.15 K, 101 kPa): 884.27 ± 0.23 kg/m3
surface tension liquid-gas ([1]; 298.15 K): 27.2 ± 0.4 mN/m
viscosity ([1]; 298.15 K, 101.33 kPa): 0.8 ± 0.01 mPa·s
mass density ([1]; 298.15 K, 101.33 kPa): 878.8 ± 0.2 kg/m3
surface tension liquid-gas ([1]; 303.15 K): 26.2 ± 0.4 mN/m
viscosity ([1]; 303.15 K, 101 kPa): 0.749 ± 0.01 mPa·s
mass density ([1]; 303.15 K, 101 kPa): 874.07 ± 0.23 kg/m3
surface tension liquid-gas ([1]; 313.15 K): 25.1 ± 0.4 mN/m
viscosity ([1]; 313.15 K, 101 kPa): 0.658 ± 0.01 mPa·s
mass density ([1]; 313.15 K, 101 kPa): 863.76 ± 0.47 kg/m3
surface tension liquid-gas ([1]; 323.15 K): 23.8 ± 0.4 mN/m
viscosity ([1]; 323.15 K, 101 kPa): 0.565 ± 0.009 mPa·s
mass density ([1]; 323.15 K, 101 kPa): 666.8 ± 0.83 kg/m3 and 853.46 ± 0.24 kg/m3
refractive index ([2]; 293.15 K, 101 kPa): 1.39161 ± 0.00037 and 1.42109 ± 0.00037
refractive index ([2]; 298.15 K, 101.33 kPa): 1.4186 ± 0.0004
refractive index ([2]; 303.15 K, 101 kPa): 1.3866 ± 0.00037 and 1.41599 ± 0.00037
refractive index ([2]; 313.15 K, 101 kPa): 1.38143 ± 0.00037 and 1.41092 ± 0.00037
refractive index ([2]; 323.15 K, 101 kPa): 1.37627 ± 0.00037 and 1.40554 ± 0.00037
